Like-named read-outs stand apart in the source and are kept apart here.
Legend:
PfNT1 = target: T1, PfNT1 (Plasmodium falciparum, UniProt Q8IDM6); test: cell-based; format: cell-based; details: PfNT1 oocytes, total [3H]CQ transport, normalised to the oocyte type control
T1 construct: expressed in transfected cells; host or cells: Xenopus laevis oocytes (stage V-VI), cRNA-injected
In short: (§1)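 Transport measured in Xenopus oocytes expressing the transporters, 1.5 h at 27.5 °C in ND96 pH 5.5 unless noted. For trans-stimulation, VF-6 injected in 25 nL ND96 at pH 5.0–7.0 or Na^+-free (choline) buffer; intracellular levels based on ~400 nL oocyte volume. Ten oocytes per treatment, ≥4 experiments.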

PfCRT^Dd2 [1] = target: T2, PfCRT^Dd2 (Plasmodium falciparum, UniProt Q9N623, A220S/I356T/K76T/M74I/N326S/N75E/Q271E/R371I); test: cell-based; format: cell-based; details: for Uptake of [3H]CQ (% PfCRTDd2 control), trans-stimulation / PfCRT-mediated [3H]CQ transport, trans-stimulation (% PfCRTDd2 control): PfCRTDd2 oocytes; for Uptake of [3H]CQ (% PfCRTDd2 control), trans-stimulation: total [3H]CQ transport, normalised to the oocyte type control; for PfCRT-mediated [3H]CQ transport, trans-stimulation (% PfCRTDd2 control): normalised to oocyte type control; for [3H]CQ transport (% PfCRTDd2 control), trans-stimulation, PfCRTDd2: PfCRT-mediated component (background subtracted), mean ± SEM, SEM
In short: as §1

PfCRT^Ecu1110 [2] = target: T3, PfCRT^Ecu1110 (Plasmodium falciparum, UniProt Q9N623, A220S/I356L/K76T/N326D); test: cell-based; format: cell-based; details: for Uptake of [3H]CQ (% PfCRTEcu1110 control), trans-stimulation / PfCRT-mediated [3H]CQ transport, trans-stimulation (% PfCRTEcu1110 control): PfCRTEcu1110 oocytes; for Uptake of [3H]CQ (% PfCRTEcu1110 control), trans-stimulation: total [3H]CQ transport, normalised to the oocyte type control; for PfCRT-mediated [3H]CQ transport, trans-stimulation (% PfCRTEcu1110 control): normalised to oocyte type control; for [3H]CQ transport (% PfCRTDd2 control), trans-stimulation, PfCRTEcu1110: PfCRT-mediated component (background subtracted), sheet title says normalised to PfCRTDd2 control, mean ± SEM, SEM
In short: as §1

PfCRT^3D7 [3] = target: T4, PfCRT^3D7 (Plasmodium falciparum, UniProt Q8IBZ9); test: cell-based; format: cell-based; details: PfCRT3D7 oocytes; for Uptake of [3H]CQ (% PfCRT3D7 control), trans-stimulation: total [3H]CQ transport, normalised to the oocyte type control; for PfCRT-mediated [3H]CQ transport, trans-stimulation (% PfCRT3D7 control): normalised to oocyte type control
In short: as §1

PfCRT^3D7 [4] = target: T4, PfCRT^3D7; test: cell-based; format: cell-based; details: PfCRT3D7 oocytes, total [3H]CQ transport, normalised to the oocyte type control
In short: (§2)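 Assay buffer ND96 (10 mM MES, 10 mM Tris-base) held at pH 5.5 to mimic vacuole lumen; uptake measured inward from this acidic medium over 1.5 h at 27.5 °C.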

PfCRT^Dd2 [5] = target: T2, PfCRT^Dd2; test: [3H]CQ uptake into Xenopus oocytes, cis-inhibition by unlabelled solute; format: cell-based; details: PfCRTDd2 oocytes, background [3H]CQ accumulation subtracted, normalised to oocyte type control
In short: as §2

PfCRT^Ecu1110 [6] = target: T3, PfCRT^Ecu1110; test: as above; format: cell-based; details: for Uptake of [3H]CQ (% PfCRTEcu1110 control), cis-inhibition / PfCRT-mediated [3H]CQ transport, cis-inhibition (% PfCRTEcu1110 control): PfCRTEcu1110 oocytes; for Uptake of [3H]CQ (% PfCRTEcu1110 control), cis-inhibition: total [3H]CQ transport, normalised to the oocyte type control; for PfCRT-mediated [3H]CQ transport, cis-inhibition (% PfCRTEcu1110 control): background [3H]CQ accumulation subtracted, normalised to oocyte type control; for [3H]CQ transport (% PfCRTEcu1110 control), cis-inhibition, PfCRTEcu1110: PfCRT-mediated component (background subtracted), sheet title says normalised to PfCRTDd2 control, mean ± SEM, SEM
In short: as §2

non-expressing oocytes [7] = format: cell-based, Xenopus laevis; details: non-expressing oocytes, total [3H]CQ transport, normalised to the oocyte type control
In short: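 Oocytes (ten per treatment, ≥4 independent frogs/days) were preloaded by injecting VF-6 in 25 nL ND96 at pH 5.0, 5.5, 6.0 or 7.0, or Na^+-free choline buffer, then uptake run 1.5 h, 27.5 °C, ND96 pH 5.5 by default. Internal concentrations assumed ~400 nL oocyte volume.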

non-expressing oocytes [8] = test: cells; format: cell-based, Xenopus laevis; details: non-expressing oocytes, total [3H]CQ transport, normalised to the oocyte type control
In short: as §2

[9] = [test solute]i = 45 mM (30 mM for some solutes due to solubility)
[10] = [test solute]i = 5 mM (intracellular)
[11] = [test solute]i = 45 mM (intracellular; 30 mM for some solutes due to solubility)
[12] = [test solute]i = 5 mM (injected)

T2 sequence (Q9N623 whole entry A220S/I356T/K76T/M74I/N326S/N75E/Q271E/R371I): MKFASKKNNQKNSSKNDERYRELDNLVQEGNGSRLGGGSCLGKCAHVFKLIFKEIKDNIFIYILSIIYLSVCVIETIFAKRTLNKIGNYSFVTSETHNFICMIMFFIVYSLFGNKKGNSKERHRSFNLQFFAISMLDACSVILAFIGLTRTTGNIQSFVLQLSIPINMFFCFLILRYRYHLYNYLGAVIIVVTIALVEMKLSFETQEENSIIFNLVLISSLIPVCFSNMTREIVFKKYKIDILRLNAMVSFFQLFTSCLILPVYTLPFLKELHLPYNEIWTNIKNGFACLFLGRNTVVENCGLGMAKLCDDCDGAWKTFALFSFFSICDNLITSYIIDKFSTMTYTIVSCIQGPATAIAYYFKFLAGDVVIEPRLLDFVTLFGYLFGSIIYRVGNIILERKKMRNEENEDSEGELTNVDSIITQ
T3 sequence (Q9N623 whole entry A220S/I356L/K76T/N326D): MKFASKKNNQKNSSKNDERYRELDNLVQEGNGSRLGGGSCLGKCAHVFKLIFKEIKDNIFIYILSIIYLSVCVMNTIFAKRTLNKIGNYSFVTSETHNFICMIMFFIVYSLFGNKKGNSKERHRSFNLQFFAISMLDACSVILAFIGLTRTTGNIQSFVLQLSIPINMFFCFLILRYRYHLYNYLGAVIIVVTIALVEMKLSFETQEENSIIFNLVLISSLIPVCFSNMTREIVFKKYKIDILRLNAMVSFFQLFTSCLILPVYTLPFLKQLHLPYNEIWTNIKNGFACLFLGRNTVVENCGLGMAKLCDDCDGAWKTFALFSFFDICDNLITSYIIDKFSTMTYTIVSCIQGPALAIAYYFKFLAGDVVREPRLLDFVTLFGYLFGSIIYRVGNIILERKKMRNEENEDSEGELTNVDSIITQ
T4 sequence (Q8IBZ9 59-398): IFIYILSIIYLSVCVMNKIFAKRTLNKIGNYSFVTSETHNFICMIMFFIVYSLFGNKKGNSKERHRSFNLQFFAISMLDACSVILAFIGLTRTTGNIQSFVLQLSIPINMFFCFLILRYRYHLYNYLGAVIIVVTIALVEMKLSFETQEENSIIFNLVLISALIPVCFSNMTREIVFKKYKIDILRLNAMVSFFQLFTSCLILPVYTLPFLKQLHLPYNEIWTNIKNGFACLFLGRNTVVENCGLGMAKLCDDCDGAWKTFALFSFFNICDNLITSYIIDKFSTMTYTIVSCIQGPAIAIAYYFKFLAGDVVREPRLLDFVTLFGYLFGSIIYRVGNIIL
T1 sequence (Q8IDM6 whole entry): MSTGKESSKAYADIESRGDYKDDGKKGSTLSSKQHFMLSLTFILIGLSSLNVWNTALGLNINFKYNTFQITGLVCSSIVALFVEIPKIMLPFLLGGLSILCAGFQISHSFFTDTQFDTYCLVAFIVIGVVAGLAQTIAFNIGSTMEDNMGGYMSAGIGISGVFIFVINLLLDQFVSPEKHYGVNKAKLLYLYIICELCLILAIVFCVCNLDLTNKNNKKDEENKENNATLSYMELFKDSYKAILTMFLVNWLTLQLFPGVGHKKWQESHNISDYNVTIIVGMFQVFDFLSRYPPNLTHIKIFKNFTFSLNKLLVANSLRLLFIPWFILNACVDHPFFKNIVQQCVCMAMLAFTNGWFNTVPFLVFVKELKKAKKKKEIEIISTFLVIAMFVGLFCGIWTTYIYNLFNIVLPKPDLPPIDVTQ

With ASLD [AD-4] the “Uptake of [3H]CQ (% PfNT1 control), trans-stimulation” value (PfNT1; [test solute]i = 5 mM) was 99 ± 2.5 % PfNT1 control, the “Uptake of [3H]CQ (% PfNT1 control), trans-stimulation” value (PfNT1; [9]) was 96 ± 2.2 % PfNT1 control and the “Uptake of [3H]CQ (% PfCRTDd2 control), trans-stimulation” value (PfCRT^Dd2 [1]; [test solute]i = 5 mM) was 98 ± 3.3 % PfCRTDd2 control. For the same substance, the “Uptake of [3H]CQ (% PfCRTDd2 control), trans-stimulation” value (PfCRT^Dd2 [1]; [9]) was 97 ± 3.9 % PfCRTDd2 control, the “PfCRT-mediated [3H]CQ transport, trans-stimulation (% PfCRTDd2 control)” value (PfCRT^Dd2 [1]; [10]) was 96 ± 2.9 % PfCRTDd2 control and the “PfCRT-mediated [3H]CQ transport, trans-stimulation (% PfCRTDd2 control)” value (PfCRT^Dd2 [1]; [11]) was 95 ± 2.6 % PfCRTDd2 control. For the same substance, the “[3H]CQ transport (% PfCRTDd2 control), trans-stimulation, PfCRTDd2” value (PfCRT^Dd2 [1]; [12]) was 96 ± 2.9 % PfCRTDd2 control, the “[3H]CQ transport (% PfCRTDd2 control), trans-stimulation, PfCRTDd2” value (PfCRT^Dd2 [1]; [9]) was 95 ± 2.6 % PfCRTDd2 control and the “Uptake of [3H]CQ (% PfCRTEcu1110 control), trans-stimulation” value (PfCRT^Ecu1110 [2]; [test solute]i = 5 mM) was 100 ± 3.2 % PfCRTEcu1110 control. The “Uptake of [3H]CQ (% PfCRTEcu1110 control), trans-stimulation” value (PfCRT^Ecu1110 [2]; [9]) was 99 ± 3.2 % PfCRTEcu1110 control, the “PfCRT-mediated [3H]CQ transport, trans-stimulation (% PfCRTEcu1110 control)” value (PfCRT^Ecu1110 [2]; [10]) was 98 ± 4.1 % PfCRTEcu1110 control and the “PfCRT-mediated [3H]CQ transport, trans-stimulation (% PfCRTEcu1110 control)” value (PfCRT^Ecu1110 [2]; [11]) was 97 ± 2.9 % PfCRTEcu1110 control. The “[3H]CQ transport (% PfCRTDd2 control), trans-stimulation, PfCRTEcu1110” value (PfCRT^Ecu1110 [2]; [12]) was 30 ± 1.7 % PfCRTEcu1110 control, the “[3H]CQ transport (% PfCRTDd2 control), trans-stimulation, PfCRTEcu1110” value (PfCRT^Ecu1110 [2]; [9]) was 29 ± 1.4 % PfCRTEcu1110 control and the “Uptake of [3H]CQ (% PfCRT3D7 control), trans-stimulation” value (PfCRT^3D7 [3]; [test solute]i = 5 mM) was 99 ± 3.7 % PfCRT3D7 control. For the same substance, the “Uptake of [3H]CQ (% PfCRT3D7 control), trans-stimulation” value (PfCRT^3D7 [3]; [9]) was 100 ± 2.6 % PfCRT3D7 control, the “PfCRT-mediated [3H]CQ transport, trans-stimulation (% PfCRT3D7 control)” value (PfCRT^3D7 [3]; [10]) was 97 ± 2.0 % PfCRT3D7 control and the “PfCRT-mediated [3H]CQ transport, trans-stimulation (% PfCRT3D7 control)” value (PfCRT^3D7 [3]; [11]) was 98 ± 3.3 % PfCRT3D7 control. For the same substance, the “Uptake of [3H]CQ (% PfCRT3D7 control), cis-inhibition” value (PfCRT^3D7 [4]; [test solute] = 0.5 mM) was 98 ± 4.4 % PfCRT3D7 control, the “Uptake of [3H]CQ (% PfCRT3D7 control), cis-inhibition” value (PfCRT^3D7 [4]; [test solute] = 1 mM) was 99 ± 4.7 % PfCRT3D7 control and the “Uptake of [3H]CQ (% PfCRT3D7 control), cis-inhibition” value (PfCRT^3D7 [4]; [test solute] = 2 mM) was 99 ± 6.1 % PfCRT3D7 control. For the same substance, the “PfCRT-mediated [3H]CQ transport, cis-inhibition (% PfCRTDd2 control)” value (PfCRT^Dd2 [5]; [test solute] = 0.5 mM) was 31 ± 1.9 % PfCRTDd2 control, the “PfCRT-mediated [3H]CQ transport, cis-inhibition (% PfCRTDd2 control)” value (PfCRT^Dd2 [5]; [test solute] = 1 mM) was 22 ± 0.8 % PfCRTDd2 control and the “PfCRT-mediated [3H]CQ transport, cis-inhibition (% PfCRTDd2 control)” value (PfCRT^Dd2 [5]; [test solute] = 2 mM) was 12 ± 0.3 % PfCRTDd2 control. For the same substance, the “Uptake of [3H]CQ (% PfCRTEcu1110 control), cis-inhibition” value (PfCRT^Ecu1110 [6]; [test solute] = 0.5 mM) was 49 ± 9.7 % PfCRTEcu1110 control, the “Uptake of [3H]CQ (% PfCRTEcu1110 control), cis-inhibition” value (PfCRT^Ecu1110 [6]; [test solute] = 1 mM) was 32 ± 8.5 % PfCRTEcu1110 control and the “Uptake of [3H]CQ (% PfCRTEcu1110 control), cis-inhibition” value (PfCRT^Ecu1110 [6]; [test solute] = 2 mM) was 26 ± 5.6 % PfCRTEcu1110 control. The “PfCRT-mediated [3H]CQ transport, cis-inhibition (% PfCRTEcu1110 control)” value (PfCRT^Ecu1110 [6]; [test solute] = 0.5 mM) was 42 ± 2.1 % PfCRTEcu1110 control, the “PfCRT-mediated [3H]CQ transport, cis-inhibition (% PfCRTEcu1110 control)” value (PfCRT^Ecu1110 [6]; [test solute] = 1 mM) was 28 ± 3.4 % PfCRTEcu1110 control and the “PfCRT-mediated [3H]CQ transport, cis-inhibition (% PfCRTEcu1110 control)” value (PfCRT^Ecu1110 [6]; [test solute] = 2 mM) was 21 ± 1.1 % PfCRTEcu1110 control. The “[3H]CQ transport (% PfCRTEcu1110 control), cis-inhibition, PfCRTEcu1110” value (PfCRT^Ecu1110 [6]; [test solute] = 0.5 mM) was 13 ± 0.2 % PfCRTEcu1110 control, the “[3H]CQ transport (% PfCRTEcu1110 control), cis-inhibition, PfCRTEcu1110” value (PfCRT^Ecu1110 [6]; [test solute] = 2 mM) was 6.0 ± 0.03 % PfCRTEcu1110 control and the “Uptake of [3H]CQ (% non-expressing oocyte control), trans-stimulation” value (non-expressing oocytes [7]; [test solute]i = 5 mM) was 100 ± 4.9 % non-expressing oocyte control. The “Uptake of [3H]CQ (% non-expressing oocyte control), trans-stimulation” value (non-expressing oocytes [7]; [9]) was 98 ± 2.6 % non-expressing oocyte control, the “Uptake of [3H]CQ (% non-expressing oocyte control), cis-inhibition” value (non-expressing oocytes [8]; [test solute] = 0.5 mM) was 99 ± 5.3 % non-expressing oocyte control and the “Uptake of [3H]CQ (% non-expressing oocyte control), cis-inhibition” value (non-expressing oocytes [8]; [test solute] = 1 mM) was 99 ± 5.2 % non-expressing oocyte control. For the same substance, the “Uptake of [3H]CQ (% non-expressing oocyte control), cis-inhibition” value (non-expressing oocytes [8]; [test solute] = 2 mM) was 99 ± 4.6 % non-expressing oocyte control.

Reference: paper PMC7413254 (Nature Communications, 2020)
